Reference: PubChem BioAssay (NCI)
Several values for one entry are separate records, joined by “and”; a condition that tells them apart may be missing. Equal entries are not always repeated.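 Following 48 hours of exposure in 96-well plates, responses at five concentrations were used to interpolate endpoints linearly. GI50 = concentration required for 50% inhibition of growth. TGI: total growth inhibition.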 *1 amine or outer side, *2 acyl side, *3 side chain or, on linkers, in order; H or OH if unused. Where a SMILES comes first, the peptide text is derived from it. [ ]: non-standard residue; d: D form. X56 = CC[C@H](C)[C@H](OC(=O)[C@@H](C)[C@@H](CC)N[*:1])C(=O)[*:2]; X32 = C[C@H](N[*:1])C(=O)C(C)(C)C(=O)[*:2]; NMeY = CN[C@@H](Cc1ccc(O)cc1)C(=O)O; NMeL = CN[C@@H](CC(C)C)C(=O)O; NMeV = CN[C@H](C(=O)O)C(C)C

Experiments:
Test in all cases: NCI anticancer screen, dose series, 48 h
ACHN renal = system: ACHN renal
EKVX NSCLC = system: EKVX NSCLC
M14 melanoma = system: M14 melanoma
NCI-H226 lung = system: NCI-H226 lung
SK-OV-3 ovarian = system: SK-OV-3 ovarian
UACC-257 melanoma = system: UACC-257 melanoma
OVCAR-5 ovarian = system: OVCAR-5 ovarian
BT-549 breast = system: BT-549 breast
NCI/ADR-RES ovarian = system: NCI/ADR-RES ovarian
T-47D breast = system: T-47D breast

In the case of `N#C/C(=C\c1ccc(C(O)P(=O)(O)O)cc1)C(N)=O` (stereo not given), the TGI (ACHN renal) was over 100 µM, the TGI (EKVX NSCLC) was over 100 µM and the TGI (M14 melanoma) was over 100 µM. The TGI (NCI-H226 lung) was over 100 µM, the TGI (SK-OV-3 ovarian) was over 100 µM and the TGI (UACC-257 melanoma) was over 100 µM.
`Cn1cnc([N+](=O)[O-])c1Sc1nnnn1-c1ccccc1` gave a TGI (ACHN renal) of 27 µM, a TGI (EKVX NSCLC) of 29.6 µM and a TGI (M14 melanoma) of 23.7 µM. The TGI (NCI-H226 lung) was 36.3 µM, the TGI (OVCAR-5 ovarian) was 31.7 µM and the TGI (SK-OV-3 ovarian) was over 100 µM. For the same molecule, the TGI (UACC-257 melanoma) was 27.6 µM.
In the case of `S=c1nc(N2CCCCC2)ss1`, the TGI (ACHN renal) was 67 µM, the TGI (EKVX NSCLC) was 55.8 µM and the TGI (M14 melanoma) was 47.7 µM. The TGI (NCI-H226 lung) was over 100 µM, the TGI (OVCAR-5 ovarian) was over 100 µM and the TGI (SK-OV-3 ovarian) was over 100 µM. The TGI (UACC-257 melanoma) was 49.9 µM.
In the case of `O=c1c2cccnc2ncn1CCN1CCCC1`, the TGI (ACHN renal) was over 100 µM, the TGI (EKVX NSCLC) was over 100 µM and the TGI (M14 melanoma) was over 100 µM. It also gave a TGI (NCI-H226 lung) of over 100 µM, a TGI (OVCAR-5 ovarian) of over 100 µM and a TGI (SK-OV-3 ovarian) of over 100 µM.
`NNC(=O)/C(NC(=O)c1ccccc1)=C(\N)c1ccc(Cl)cc1` gave a TGI (ACHN renal) of over 100 µM, a TGI (EKVX NSCLC) of over 100 µM and a TGI (M14 melanoma) of over 100 µM. For the same molecule, the TGI (NCI-H226 lung) was over 100 µM, the TGI (OVCAR-5 ovarian) was over 100 µM and the TGI (SK-OV-3 ovarian) was over 100 µM. For the same molecule, the TGI (UACC-257 melanoma) was over 100 µM.
`CC1(O)CCC2(C#N)CCC1C2O` (stereo not given) was tested, and the TGI (ACHN renal) was over 100 µM, the TGI (EKVX NSCLC) was over 100 µM and the TGI (M14 melanoma) was over 100 µM. The TGI (NCI-H226 lung) was over 100 µM, the TGI (OVCAR-5 ovarian) was over 100 µM and the TGI (SK-OV-3 ovarian) was over 100 µM. The TGI (UACC-257 melanoma) was over 100 µM.
`Cc1c2c(cc3c(=O)ccn(CCN(C)C)c13)c(=O)ccn2CCN(C)C` was tested, and the TGI (ACHN renal) was 26.3 µM, the TGI (EKVX NSCLC) was 29 µM and the TGI (M14 melanoma) was 25 µM. It also gave a TGI (NCI-H226 lung) of 31.7 µM, a TGI (OVCAR-5 ovarian) of 42.3 µM and a TGI (SK-OV-3 ovarian) of 37.5 µM. It also gave a TGI (UACC-257 melanoma) of 33.7 µM.
With `COc1cc2c(c(OC)c1OC)-c1ccc(OC)c(=O)cc1[C@@H](N(C)C=O)CC2` the TGI (ACHN renal) was over 100 µM, the TGI (EKVX NSCLC) was over 100 µM and the TGI (M14 melanoma) was over 65.6 µM. It also gave a TGI (OVCAR-5 ovarian) of over 100 µM and a TGI (UACC-257 melanoma) of over 100 µM.
`CC[C@H](C)[C@@H]1OC(=O)[C@@H](C)[C@@H](CC)NC(=O)[C@H](C)NC(=O)C(C)(C)C(=O)[C@H](C)NC(=O)[C@H](Cc2ccc(OC)cc2)N(C)C(=O)[C@H](C(C)C)N(C)C(=O)CNC(=O)[C@H](CC(C)C)N(C)C(=O)CNC1=O` (cyclo(A[X56]G[NMeL]G[NMeV][NMeY](Me)[X32])) was tested, and the GI50 (ACHN renal) was under 0.0165 µM, the TGI (ACHN renal) was 0.332 µM and 0.0908 µM and the TGI (BT-549 breast) was 0.28 µM. For the same molecule, the GI50 (EKVX NSCLC) was 0.0668 µM, the TGI (EKVX NSCLC) was 1.82 µM and 8.44 µM and the GI50 (M14 melanoma) was 0.0403 µM. The TGI (M14 melanoma) was 2.02 µM and 0.786 µM, the GI50 (NCI-H226 lung) was 0.0731 µM and the TGI (NCI-H226 lung) was 3.75 µM and 1.06 µM. For the same molecule, the TGI (NCI/ADR-RES ovarian) was 9.92 µM, the GI50 (OVCAR-5 ovarian) was 0.349 µM and the TGI (OVCAR-5 ovarian) was over 100 µM. For the same molecule, the GI50 (SK-OV-3 ovarian) was 0.024 µM and the GI50 (UACC-257 melanoma) was 0.0248 µM.
Work on `CCOC(=O)/C(=C\c1ccc[nH]1)C(=O)c1ccccc1` yielded a TGI (ACHN renal) of over 100 µM, a TGI (EKVX NSCLC) of over 100 µM and a TGI (M14 melanoma) of over 100 µM. For the same molecule, the TGI (NCI-H226 lung) was over 100 µM, the TGI (OVCAR-5 ovarian) was over 100 µM and the TGI (SK-OV-3 ovarian) was over 100 µM. For the same molecule, the TGI (UACC-257 melanoma) was over 100 µM.
Work on `CCC(C(=O)c1ccccc1)C(CCCC(=O)Nc1c(C)cccc1C)N=O` (stereo not given) yielded a TGI (ACHN renal) of over 100 µM, a TGI (EKVX NSCLC) of over 100 µM and a TGI (M14 melanoma) of over 100 µM. The TGI (NCI-H226 lung) was over 100 µM, the TGI (OVCAR-5 ovarian) was over 100 µM and the TGI (SK-OV-3 ovarian) was over 100 µM. The TGI (UACC-257 melanoma) was over 100 µM.
Work on `C1COCCOCCOCCOCCO1.CC(=O)[CH-]C(C)=O.CC(=O)[CH-]C(C)=O.CC(=O)[CH-]C(C)=O.[V]` yielded a GI50 (ACHN renal) of 12 µM, a TGI (ACHN renal) of 44.1 µM and a GI50 (M14 melanoma) of 5.59 µM. It also gave a TGI (M14 melanoma) of 21 µM, a GI50 (NCI-H226 lung) of 37.1 µM and a TGI (NCI-H226 lung) of over 100 µM. The GI50 (SK-OV-3 ovarian) was 17.6 µM, the TGI (SK-OV-3 ovarian) was 33 µM and the GI50 (UACC-257 melanoma) was 12.1 µM. It also gave a TGI (UACC-257 melanoma) of 25.3 µM.
With `CC(C)C(=O)/C=C/c1ccc(Cl)c(Cl)c1` the TGI (ACHN renal) was 32.7 µM, the TGI (EKVX NSCLC) was 51.4 µM and the TGI (M14 melanoma) was 31.9 µM. The TGI (OVCAR-5 ovarian) was 36.8 µM, the TGI (SK-OV-3 ovarian) was 70.3 µM and the TGI (UACC-257 melanoma) was 45.1 µM.
Work on `N#CC1CC2(C(=O)C1=O)c1ccccc1-c1ccccc12` (stereo not given) yielded a TGI (ACHN renal) of over 100 µM, a TGI (EKVX NSCLC) of over 100 µM and a TGI (M14 melanoma) of over 100 µM. It also gave a TGI (NCI-H226 lung) of over 100 µM, a TGI (OVCAR-5 ovarian) of over 100 µM and a TGI (SK-OV-3 ovarian) of over 100 µM. The TGI (UACC-257 melanoma) was over 100 µM.
Molecule `Cc1cc2cn3c4cccnc4[nH]c(=O)c3c2cc1C` has a GI50 (ACHN renal) of 1.73 µM, a TGI (ACHN renal) of 3.1 µM and a GI50 (BT-549 breast) of 12.2 µM. The TGI (BT-549 breast) was 29.4 µM, the GI50 (NCI-H226 lung) was 11.2 µM and the TGI (NCI-H226 lung) was 28 µM. It also gave a GI50 (NCI/ADR-RES ovarian) of 1.39 µM, a TGI (NCI/ADR-RES ovarian) of 2.96 µM and a GI50 (OVCAR-5 ovarian) of 1.66 µM. It also gave a TGI (OVCAR-5 ovarian) of 3.02 µM, a GI50 (SK-OV-3 ovarian) of 1.8 µM and a TGI (SK-OV-3 ovarian) of 3.2 µM. For the same molecule, the GI50 (T-47D breast) was 1.84 µM, the TGI (T-47D breast) was 4 µM and the GI50 (UACC-257 melanoma) was 1.67 µM. It also gave a TGI (UACC-257 melanoma) of 3.41 µM.
With `CC/C=C/c1cc2cc[nH]c2c2c1C(C)C[C@@H]2C` (stereo not given in full) the TGI (ACHN renal) was over 100 µM, the TGI (EKVX NSCLC) was over 100 µM and the TGI (M14 melanoma) was 74.9 µM. It also gave a TGI (NCI-H226 lung) of 39 µM, a TGI (SK-OV-3 ovarian) of over 100 µM and a TGI (UACC-257 melanoma) of over 100 µM.
In the case of `C=C1C(=O)O[C@H]2[C@H]1CC/C(COC(=O)c1ccccc1)=C\CC[C@@]1(C)O[C@@H]21`, the GI50 (ACHN renal) was 1.37 µM, the TGI (ACHN renal) was 2.86 µM and the GI50 (BT-549 breast) was 1.23 µM. The TGI (BT-549 breast) was 2.94 µM, the GI50 (EKVX NSCLC) was 1.85 µM and the TGI (EKVX NSCLC) was 4.46 µM. For the same molecule, the GI50 (M14 melanoma) was 1.32 µM, the TGI (M14 melanoma) was 3.27 µM and the GI50 (NCI-H226 lung) was 1.62 µM. The TGI (NCI-H226 lung) was 3.74 µM, the GI50 (NCI/ADR-RES ovarian) was 2.67 µM and the TGI (NCI/ADR-RES ovarian) was 9.05 µM. It also gave a GI50 (OVCAR-5 ovarian) of 2 µM, a TGI (OVCAR-5 ovarian) of 5.36 µM and a GI50 (SK-OV-3 ovarian) of 11.8 µM. For the same molecule, the TGI (SK-OV-3 ovarian) was 24 µM, the GI50 (UACC-257 melanoma) was 1.51 µM and the TGI (UACC-257 melanoma) was 3.37 µM.
Work on `C=CCn1cc(C(=O)NC(=O)NCCCCCOC(=O)CCCCCCCCCCC(=O)OCCCCCNC(=O)NC(=O)c2cn(CC=C)c(=O)n(C)c2=O)c(=O)n(C)c1=O` yielded a TGI (ACHN renal) of over 100 µM, a TGI (EKVX NSCLC) of over 100 µM and a TGI (M14 melanoma) of over 100 µM. For the same molecule, the TGI (NCI-H226 lung) was over 100 µM, the TGI (OVCAR-5 ovarian) was over 100 µM and the TGI (SK-OV-3 ovarian) was over 100 µM. For the same molecule, the TGI (UACC-257 melanoma) was over 100 µM.
